Data as given in ChEMBL document CHEMBL5058649, “Data for DCP probe BAY 1816032” (2022).

What was measured:
[1] = target: Sigma non-opioid intracellular receptor 1 (Homo sapiens, UniProt Q99720); conditions: Compound concentration 10.0 uM
[2] = target: Dual specificity protein kinase CLK3 (Homo sapiens) (UniProt P49761); experiment: CLK3 DiscoveRx kinase panel; conditions: Compound concentration 1.0 uM
[3] = target: RAF proto-oncogene serine/threonine-protein kinase (Homo sapiens) (UniProt P04049); experiment: RAF1 DiscoveRx kinase panel; conditions: Compound concentration 1.0 uM
[4] = target: Tyrosine-protein kinase Blk (Homo sapiens) (UniProt P51451); experiment: BLK DiscoveRx kinase panel; conditions: Compound concentration 1.0 uM
[5] = target: Protein kinase C epsilon type (Homo sapiens) (UniProt Q02156); experiment: PRKCE DiscoveRx kinase panel; conditions: Compound concentration 1.0 uM
[6] = target: Ribosomal protein S6 kinase alpha-2 (Homo sapiens) (UniProt Q15349); experiment: RSK3(Kin.Dom.2-C-terminal) DiscoveRx kinase panel; conditions: Compound concentration 1.0 uM
[7] = target: Serine/threonine-protein kinase Sgk3 (Homo sapiens) (UniProt Q96BR1); experiment: SGK3 DiscoveRx kinase panel; conditions: Compound concentration 1.0 uM
Serine/threonine-protein kinase Sgk3 (Homo sapiens), sequence (Q96BR1 whole entry, the tested form may be a part): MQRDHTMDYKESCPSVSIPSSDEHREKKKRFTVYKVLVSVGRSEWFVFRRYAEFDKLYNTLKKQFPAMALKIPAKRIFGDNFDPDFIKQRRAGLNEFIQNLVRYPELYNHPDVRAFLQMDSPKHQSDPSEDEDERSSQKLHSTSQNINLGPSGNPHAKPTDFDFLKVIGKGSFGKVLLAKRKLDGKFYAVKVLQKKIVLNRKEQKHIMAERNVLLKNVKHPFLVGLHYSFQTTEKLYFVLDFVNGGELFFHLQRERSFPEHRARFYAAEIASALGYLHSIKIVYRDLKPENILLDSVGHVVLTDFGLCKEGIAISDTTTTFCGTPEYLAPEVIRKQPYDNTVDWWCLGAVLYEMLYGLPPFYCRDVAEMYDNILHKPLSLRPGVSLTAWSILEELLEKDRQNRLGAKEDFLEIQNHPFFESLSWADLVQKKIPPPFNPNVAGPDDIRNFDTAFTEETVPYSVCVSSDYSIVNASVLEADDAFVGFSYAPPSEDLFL

[8] = target: Epithelial discoidin domain-containing receptor 1 (Homo sapiens, UniProt Q08345); experiment: DDR1 DiscoveRx kinase panel
Epithelial discoidin domain-containing receptor 1, sequence (Q08345 whole entry, the tested form may be a part): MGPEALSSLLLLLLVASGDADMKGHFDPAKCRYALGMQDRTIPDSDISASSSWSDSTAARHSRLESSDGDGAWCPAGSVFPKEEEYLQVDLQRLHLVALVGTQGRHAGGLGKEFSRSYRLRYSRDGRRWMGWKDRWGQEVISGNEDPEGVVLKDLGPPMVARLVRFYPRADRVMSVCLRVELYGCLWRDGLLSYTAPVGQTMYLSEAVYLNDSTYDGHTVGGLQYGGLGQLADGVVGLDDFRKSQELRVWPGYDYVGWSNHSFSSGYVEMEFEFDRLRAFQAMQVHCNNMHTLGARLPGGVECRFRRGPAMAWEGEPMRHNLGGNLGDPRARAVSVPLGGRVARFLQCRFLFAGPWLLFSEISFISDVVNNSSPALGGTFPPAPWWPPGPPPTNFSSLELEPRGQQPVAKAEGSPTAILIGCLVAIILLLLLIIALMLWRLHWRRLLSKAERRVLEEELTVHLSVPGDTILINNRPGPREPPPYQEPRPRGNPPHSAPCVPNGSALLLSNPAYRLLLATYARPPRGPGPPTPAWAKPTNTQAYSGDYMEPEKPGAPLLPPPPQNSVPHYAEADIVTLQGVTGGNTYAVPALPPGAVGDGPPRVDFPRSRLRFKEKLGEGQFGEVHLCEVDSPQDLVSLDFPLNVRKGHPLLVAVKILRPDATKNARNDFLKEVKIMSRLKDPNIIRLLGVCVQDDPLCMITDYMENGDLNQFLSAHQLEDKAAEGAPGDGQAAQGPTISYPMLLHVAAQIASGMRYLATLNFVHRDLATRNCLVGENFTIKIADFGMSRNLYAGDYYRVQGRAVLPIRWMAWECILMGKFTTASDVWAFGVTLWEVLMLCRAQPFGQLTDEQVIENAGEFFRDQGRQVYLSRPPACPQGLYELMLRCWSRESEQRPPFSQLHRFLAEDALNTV

[9] = target: Serine/threonine-protein kinase NLK (Homo sapiens) (UniProt Q9UBE8); experiment: NLK DiscoveRx kinase panel; conditions: Compound concentration 1.0 uM
Serine/threonine-protein kinase NLK (Homo sapiens), sequence (Q9UBE8 whole entry): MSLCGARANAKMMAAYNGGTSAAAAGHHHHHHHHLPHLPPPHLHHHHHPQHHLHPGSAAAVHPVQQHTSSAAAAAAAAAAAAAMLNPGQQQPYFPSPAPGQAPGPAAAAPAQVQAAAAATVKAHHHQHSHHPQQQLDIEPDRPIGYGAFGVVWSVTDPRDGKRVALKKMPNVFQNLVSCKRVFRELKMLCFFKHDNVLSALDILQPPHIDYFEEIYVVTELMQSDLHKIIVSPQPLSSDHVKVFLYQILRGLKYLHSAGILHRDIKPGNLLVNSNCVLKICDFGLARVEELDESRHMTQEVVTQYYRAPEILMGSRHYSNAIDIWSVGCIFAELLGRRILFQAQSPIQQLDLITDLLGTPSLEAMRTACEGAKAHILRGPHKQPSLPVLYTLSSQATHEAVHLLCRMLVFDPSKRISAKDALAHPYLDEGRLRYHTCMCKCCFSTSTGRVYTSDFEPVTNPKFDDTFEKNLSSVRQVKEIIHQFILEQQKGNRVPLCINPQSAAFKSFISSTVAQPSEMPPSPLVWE

[10] = target: Myosin-IIIb (Homo sapiens) (UniProt Q8WXR4); experiment: MYO3B DiscoveRx kinase panel; conditions: Compound concentration 1.0 uM
[11] = target: Serine/threonine-protein kinase TNNI3K (Homo sapiens) (UniProt Q59H18); experiment: TNNI3K DiscoveRx kinase panel; conditions: Compound concentration 1.0 uM
[12] = target: Serine/threonine-protein kinase Sgk2 (Homo sapiens) (UniProt Q9HBY8); experiment: SGK2 DiscoveRx kinase panel; conditions: Compound concentration 1.0 uM
[13] = target: Non-receptor tyrosine-protein kinase TYK2 (Homo sapiens) (UniProt P29597); experiment: TYK2(JH1domain-catalytic) DiscoveRx kinase panel; conditions: Compound concentration 1.0 uM
[14] = target: Adenosine receptor A2a (Homo sapiens) (UniProt P29274); conditions: Compound concentration 10.0 uM
[15] = target: Substance-P receptor (Homo sapiens) (UniProt P25103); experiment: Inhibition of Tachykinin NK1 at 10 µM in the Eurofins-Panlabs radioligand binding assay (Eurofins_assay_255520); parameters: ligand concentration 0.8 nM; conditions: Compound concentration 10.0 uM
Substance-P receptor (Homo sapiens), sequence (P25103 whole entry): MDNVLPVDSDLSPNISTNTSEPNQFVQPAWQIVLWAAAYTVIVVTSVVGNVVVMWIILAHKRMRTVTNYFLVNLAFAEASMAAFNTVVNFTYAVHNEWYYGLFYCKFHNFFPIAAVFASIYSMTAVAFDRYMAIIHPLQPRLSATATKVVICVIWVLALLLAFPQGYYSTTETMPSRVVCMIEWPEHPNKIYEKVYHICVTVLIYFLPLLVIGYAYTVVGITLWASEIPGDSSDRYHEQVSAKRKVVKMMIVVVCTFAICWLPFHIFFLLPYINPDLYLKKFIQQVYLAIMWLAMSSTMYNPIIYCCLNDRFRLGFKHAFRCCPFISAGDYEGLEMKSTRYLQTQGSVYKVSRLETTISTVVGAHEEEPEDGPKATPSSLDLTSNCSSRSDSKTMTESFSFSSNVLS

[16] = target: Serine/threonine-protein kinase RIO2 (Homo sapiens) (UniProt Q9BVS4); experiment: RIOK2 DiscoveRx kinase panel; conditions: Compound concentration 1.0 uM
[17] = target: Testis-specific serine/threonine-protein kinase 3 (Homo sapiens) (UniProt Q96PN8); experiment: TSSK3 DiscoveRx kinase panel; conditions: Compound concentration 1.0 uM
[18] = target: Dual specificity mitogen-activated protein kinase kinase 7 (Homo sapiens) (UniProt O14733); experiment: MKK7 DiscoveRx kinase panel; conditions: Compound concentration 1.0 uM
[19] = target: ATP-sensitive inward rectifier potassium channel 11 (Cricetulus griseus) (UniProt A0A3L7HHE1); experiment: Inhibition of Potassium Channel [KATP] at 10 µM in the Eurofins-Panlabs radioligand binding assay (Eurofins_assay_265600); conditions: Cricetinae; Compound concentration 10.0 uM
[20] = target: Homeodomain-interacting protein kinase 3 (Homo sapiens) (UniProt Q9H422); experiment: HIPK3 DiscoveRx kinase panel; conditions: Compound concentration 1.0 uM
[21] = target: D(2) dopamine receptor (Homo sapiens) (UniProt P14416); conditions: Compound concentration 10.0 uM
[22] = target: Serine/threonine-protein kinase 38-like (Homo sapiens) (UniProt Q9Y2H1); experiment: NDR2 DiscoveRx kinase panel; conditions: Compound concentration 1.0 uM
[23] = target: Serine/threonine-protein kinase ULK2 (Homo sapiens) (UniProt Q8IYT8); experiment: ULK2 DiscoveRx kinase panel; conditions: Compound concentration 1.0 uM
[24] = target: Focal adhesion kinase 1 (Homo sapiens) (UniProt Q05397); experiment: FAK DiscoveRx kinase panel; conditions: Compound concentration 1.0 uM
Focal adhesion kinase 1 (Homo sapiens), sequence (Q05397 2-1052 limits assumed): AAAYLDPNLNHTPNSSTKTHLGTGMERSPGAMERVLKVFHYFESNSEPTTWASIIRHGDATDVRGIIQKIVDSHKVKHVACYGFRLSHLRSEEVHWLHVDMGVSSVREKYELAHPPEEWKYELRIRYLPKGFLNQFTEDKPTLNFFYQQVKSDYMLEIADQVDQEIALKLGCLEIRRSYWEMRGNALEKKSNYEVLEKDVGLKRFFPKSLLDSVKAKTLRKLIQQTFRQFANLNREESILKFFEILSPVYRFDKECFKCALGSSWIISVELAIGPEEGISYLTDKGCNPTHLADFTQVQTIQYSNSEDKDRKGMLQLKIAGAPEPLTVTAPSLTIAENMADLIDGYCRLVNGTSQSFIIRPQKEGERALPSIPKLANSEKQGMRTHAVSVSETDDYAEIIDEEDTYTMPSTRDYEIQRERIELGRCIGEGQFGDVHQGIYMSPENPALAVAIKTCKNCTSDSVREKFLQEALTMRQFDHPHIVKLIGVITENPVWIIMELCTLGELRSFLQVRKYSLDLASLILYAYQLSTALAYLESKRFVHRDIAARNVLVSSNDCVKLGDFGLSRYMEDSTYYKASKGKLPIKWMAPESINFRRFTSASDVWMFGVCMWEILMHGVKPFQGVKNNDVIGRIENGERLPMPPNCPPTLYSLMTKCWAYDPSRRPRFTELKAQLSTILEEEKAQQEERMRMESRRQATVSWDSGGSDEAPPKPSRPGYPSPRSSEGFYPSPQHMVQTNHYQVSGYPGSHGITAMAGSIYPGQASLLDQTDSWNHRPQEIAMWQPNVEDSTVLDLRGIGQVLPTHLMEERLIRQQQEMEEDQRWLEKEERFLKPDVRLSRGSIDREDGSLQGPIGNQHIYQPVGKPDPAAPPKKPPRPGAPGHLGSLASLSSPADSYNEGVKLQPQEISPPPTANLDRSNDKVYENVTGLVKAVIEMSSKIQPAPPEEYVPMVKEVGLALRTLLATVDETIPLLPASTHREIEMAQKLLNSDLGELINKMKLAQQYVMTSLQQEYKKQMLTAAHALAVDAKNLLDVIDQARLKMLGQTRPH

[25] = target: Glutamate receptor ionotropic, kainate (Rattus norvegicus) (UniProt P22756+Q01812+P42260+P42264+Q63273); experiment: Inhibition of Glutamate, Kainate at 10 µM in the Eurofins-Panlabs radioligand binding assay (Eurofins_assay_232700); conditions: Compound concentration 10.0 uM
[26] = target: Serine/threonine-protein kinase PLK1 (Homo sapiens) (UniProt P53350); experiment: PLK1 DiscoveRx kinase panel; conditions: Compound concentration 1.0 uM
[27] = HeLa-MaTu-ADR cell line Proliferation assay; format: functional, Homo sapiens; conditions: time 4 day
[28] = target: Phosphatidylinositol 5-phosphate 4-kinase type-2 beta (Homo sapiens) (UniProt P78356); experiment: PIP5K2B DiscoveRx kinase panel; conditions: Compound concentration 1.0 uM
[29] = test system: Bacteria; experiment: Inhibition of Beta-Lactamase at 10 µM in the Eurofins-Panlabs enzyme assay (Eurofins_assay_126000); format: protein-complex assay; parameters: substrate with concentration; conditions: Compound concentration 10.0 uM
[30] = target: Activin receptor type-1-like (Homo sapiens) (UniProt P37023); experiment: ACVRL1 DiscoveRx kinase panel; conditions: Compound concentration 1.0 uM
[31] = target: Misshapen-like kinase 1 (Homo sapiens) (UniProt Q8N4C8); experiment: MINK DiscoveRx kinase panel; conditions: Compound concentration 1.0 uM
[32] = target: Hormonally up-regulated neu tumor-associated kinase (Homo sapiens) (UniProt P57058); experiment: HUNK DiscoveRx kinase panel; conditions: Compound concentration 1.0 uM
[33] = target: Cyclin-dependent kinase 11B (Homo sapiens) (UniProt P21127); experiment: CDC2L1 DiscoveRx kinase panel; conditions: Compound concentration 1.0 uM
[34] = target: Inhibitor of nuclear factor kappa-B kinase subunit alpha (Homo sapiens) (UniProt O15111); experiment: IKK-alpha DiscoveRx kinase panel; conditions: Compound concentration 1.0 uM
[35] = target: Microtubule-associated serine/threonine-protein kinase 1 (Homo sapiens) (UniProt Q9Y2H9); experiment: MAST1 DiscoveRx kinase panel; conditions: Compound concentration 1.0 uM
[36] = target: Mitogen-activated protein kinase 1 (Homo sapiens) (UniProt P28482); experiment: ERK2 DiscoveRx kinase panel; conditions: Compound concentration 1.0 uM
[37] = target: Serine/threonine-protein kinase Chk2 (Homo sapiens) (UniProt O96017); experiment: CHEK2 DiscoveRx kinase panel; conditions: Compound concentration 1.0 uM
[38] = target: Cyclin-dependent kinase 11A (Homo sapiens) (UniProt Q9UQ88); experiment: CDC2L2 DiscoveRx kinase panel; conditions: Compound concentration 1.0 uM
[39] = target: Mitogen-activated protein kinase kinase kinase 10 (Homo sapiens) (UniProt Q02779); experiment: MLK2 DiscoveRx kinase panel; conditions: Compound concentration 1.0 uM
Mitogen-activated protein kinase kinase kinase 10 (Homo sapiens), sequence (Q02779 whole entry, looked up): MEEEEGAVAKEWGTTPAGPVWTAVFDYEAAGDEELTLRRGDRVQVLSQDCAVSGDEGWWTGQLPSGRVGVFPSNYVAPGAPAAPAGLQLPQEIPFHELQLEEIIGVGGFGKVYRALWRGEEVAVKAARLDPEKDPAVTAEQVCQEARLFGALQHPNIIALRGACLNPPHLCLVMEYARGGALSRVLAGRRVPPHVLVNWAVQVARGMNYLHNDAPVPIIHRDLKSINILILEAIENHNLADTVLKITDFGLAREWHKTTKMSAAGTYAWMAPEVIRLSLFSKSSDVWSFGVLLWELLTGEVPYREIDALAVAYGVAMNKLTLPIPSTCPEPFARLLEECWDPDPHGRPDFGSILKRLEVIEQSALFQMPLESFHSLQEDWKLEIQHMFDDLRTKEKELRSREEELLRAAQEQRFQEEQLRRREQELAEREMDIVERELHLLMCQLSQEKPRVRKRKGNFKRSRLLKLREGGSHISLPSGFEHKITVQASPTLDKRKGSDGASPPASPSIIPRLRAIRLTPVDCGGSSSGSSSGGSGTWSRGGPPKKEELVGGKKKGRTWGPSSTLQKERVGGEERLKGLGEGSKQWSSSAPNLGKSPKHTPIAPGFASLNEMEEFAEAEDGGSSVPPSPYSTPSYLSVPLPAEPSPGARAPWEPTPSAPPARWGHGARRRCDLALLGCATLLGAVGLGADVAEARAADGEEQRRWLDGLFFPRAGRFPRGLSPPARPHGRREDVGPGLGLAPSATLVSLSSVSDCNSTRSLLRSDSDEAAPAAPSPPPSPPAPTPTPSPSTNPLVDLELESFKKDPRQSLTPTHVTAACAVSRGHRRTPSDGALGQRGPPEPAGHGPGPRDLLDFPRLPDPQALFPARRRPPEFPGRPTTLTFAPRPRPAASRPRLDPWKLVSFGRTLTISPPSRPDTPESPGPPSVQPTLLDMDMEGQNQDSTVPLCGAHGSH

[40] = target: Calcium/calmodulin-dependent protein kinase type 1 (Homo sapiens) (UniProt Q14012); experiment: CAMK1 DiscoveRx kinase panel; conditions: Compound concentration 1.0 uM
[41] = target: Histamine H2 receptor (Homo sapiens) (UniProt P25021); conditions: Compound concentration 10.0 uM
[42] = target: 1-phosphatidylinositol 3-phosphate 5-kinase (Homo sapiens) (UniProt Q9Y2I7); experiment: PIKFYVE DiscoveRx kinase panel; conditions: Compound concentration 1.0 uM
[43] = target: Casein kinase I isoform epsilon (Homo sapiens) (UniProt P49674); experiment: CSNK1E DiscoveRx kinase panel; conditions: Compound concentration 1.0 uM
[44] = target: RAC-beta serine/threonine-protein kinase (Homo sapiens) (UniProt P31751); experiment: AKT2 DiscoveRx kinase panel; conditions: Compound concentration 1.0 uM
[45] = target: Serine/threonine-protein kinase Sgk1 (Homo sapiens) (UniProt O00141); experiment: SGK DiscoveRx kinase panel; conditions: Compound concentration 1.0 uM
[46] = target: Eukaryotic translation initiation factor 2-alpha kinase 1 (Homo sapiens) (UniProt Q9BQI3); experiment: EIF2AK1 DiscoveRx kinase panel; conditions: Compound concentration 1.0 uM
[47] = target: Serine/threonine-protein kinase Nek2 (Homo sapiens) (UniProt P51955); experiment: NEK2 DiscoveRx kinase panel; conditions: Compound concentration 1.0 uM
[48] = target: Rhodopsin kinase GRK1 (Homo sapiens) (UniProt Q15835); experiment: GRK1 DiscoveRx kinase panel; conditions: Compound concentration 1.0 uM
Rhodopsin kinase GRK1 (Homo sapiens), sequence (Q15835 whole entry): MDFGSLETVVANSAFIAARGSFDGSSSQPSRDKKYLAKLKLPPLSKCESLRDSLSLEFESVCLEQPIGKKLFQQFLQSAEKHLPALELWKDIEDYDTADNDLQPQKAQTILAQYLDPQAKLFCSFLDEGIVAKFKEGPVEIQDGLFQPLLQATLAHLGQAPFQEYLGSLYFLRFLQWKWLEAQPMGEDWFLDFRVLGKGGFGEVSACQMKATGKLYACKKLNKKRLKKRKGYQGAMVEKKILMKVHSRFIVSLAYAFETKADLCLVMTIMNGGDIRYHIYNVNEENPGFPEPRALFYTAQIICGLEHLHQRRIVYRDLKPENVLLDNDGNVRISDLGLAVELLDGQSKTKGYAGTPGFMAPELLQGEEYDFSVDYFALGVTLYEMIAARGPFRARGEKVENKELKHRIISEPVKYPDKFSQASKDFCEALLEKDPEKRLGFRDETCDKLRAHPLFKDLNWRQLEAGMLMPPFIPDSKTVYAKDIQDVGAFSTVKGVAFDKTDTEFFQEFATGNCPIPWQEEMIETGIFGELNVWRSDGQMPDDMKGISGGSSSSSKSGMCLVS

COc1cnccc1Nc1nc(-c2nn(Cc3c(F)cc(OCCO)cc3F)c3ccccc23)ncc1OC showed an inhibition [1] of 4.34%, a residual activity [2] of 100% and a residual activity [3] of 71%. For the same molecule, the residual activity [4] was 88%, the residual activity [5] was 100% and the residual activity [6] was 100%. For the same molecule, the residual activity [7] was 99%, the Kd [8] was 2.3 µM and the residual activity ([8]; Compound concentration 1.0 uM) was 21%. It also gave a residual activity [9] of 88%, a residual activity [10] of 91% and a residual activity [11] of 97%. For the same molecule, the residual activity [12] was 100%, the residual activity [13] was 100% and the inhibition [14] was 67%. It also gave an inhibition [15] of 19%, a residual activity [16] of 100% and a residual activity [17] of 90%. It also gave a residual activity [18] of 98%, an inhibition [19] of 4% and a residual activity [20] of 100%. The inhibition [21] was 17%, the residual activity [22] was 78% and the residual activity [23] was 100%. It also gave a residual activity [24] of 88%, an inhibition [25] of -1% and a residual activity [26] of 98%. For the same molecule, the “Cell Proliferation IC50” value [27] was 1.1 µM, the residual activity [28] was 91% and the inhibition [29] was 21%. It also gave a residual activity [30] of 69%, a residual activity [31] of 76% and a residual activity [32] of 99%. It also gave a residual activity [33] of 91%, a residual activity [34] of 100% and a residual activity [35] of 63%. The residual activity [36] was 93%, the residual activity [37] was 100% and the residual activity [38] was 100%. It also gave a residual activity [39] of 76%, a residual activity [40] of 52% and an inhibition [41] of 9.79%. The residual activity [42] was 88%, the residual activity [43] was 100% and the residual activity [44] was 88%. The residual activity [45] was 93%, the residual activity [46] was 87% and the residual activity [47] was 90%. For the same molecule, the residual activity [48] was 100%.
